Assay: xn = mol fraction of the nth substance listed
Settings: Liquid, Vibrating tube method

CCCCCCCCCC [decane] + CCCO
mass density [kg/m3]
Settings	313.15 K	323.15 K
100 kPa, x2 = 0.1391	716.51	707.51
100 kPa, x2 = 0.1907	717.9	709.03
100 kPa, x2 = 0.3001	721.57	712.69
100 kPa, x2 = 0.4326	726.91	717.73
100 kPa, x2 = 0.6863	743.48	734.39
100 kPa, x2 = 0.8711	764.1	755.13
1000 kPa, x2 = 0.1907	–	709.9
1000 kPa, x2 = 0.3001	723.23	–
1000 kPa, x2 = 0.4326	728.22	–
1000 kPa, x2 = 0.6863	–	735.11
1010 kPa, x2 = 0.1391	–	708.44
1010 kPa, x2 = 0.1907	718.96	–
1010 kPa, x2 = 0.3001	–	713.84
1010 kPa, x2 = 0.4326	–	718.54
1010 kPa, x2 = 0.6863	744.97	–
1010 kPa, x2 = 0.8711	765.33	–
1020 kPa, x2 = 0.1391	717.29	–
1020 kPa, x2 = 0.8711	–	755.79
2000 kPa, x2 = 0.1391	718.2	–
2000 kPa, x2 = 0.1907	719.85	–
2000 kPa, x2 = 0.4326	–	719.49
2000 kPa, x2 = 0.8711	766.21	–
2010 kPa, x2 = 0.1391	–	709.4
2010 kPa, x2 = 0.1907	–	710.86
2010 kPa, x2 = 0.3001	724.13	714.8
2010 kPa, x2 = 0.4326	729.1	–
2010 kPa, x2 = 0.6863	745.85	–
2020 kPa, x2 = 0.6863	–	736.08
2020 kPa, x2 = 0.8711	–	756.71
3000 kPa, x2 = 0.1391	719.08	–
3000 kPa, x2 = 0.4326	730	–
3000 kPa, x2 = 0.8711	–	757.64
3010 kPa, x2 = 0.1391	–	710.34
3010 kPa, x2 = 0.1907	720.73	711.79
3010 kPa, x2 = 0.4326	–	720.43
3010 kPa, x2 = 0.6863	746.75	737.03
3020 kPa, x2 = 0.3001	725.02	715.74
3020 kPa, x2 = 0.8711	767.09	–
4000 kPa, x2 = 0.3001	–	716.68
4010 kPa, x2 = 0.1391	719.94	–
4010 kPa, x2 = 0.1907	721.6	–
4010 kPa, x2 = 0.3001	725.89	–
4010 kPa, x2 = 0.4326	–	721.39
4010 kPa, x2 = 0.6863	747.62	737.97
4010 kPa, x2 = 0.8711	767.96	–
4020 kPa, x2 = 0.1391	–	711.27
4020 kPa, x2 = 0.1907	–	712.75
4020 kPa, x2 = 0.4326	730.9	–
4020 kPa, x2 = 0.8711	–	758.56
5000 kPa, x2 = 0.1391	–	712.19
5000 kPa, x2 = 0.3001	726.76	717.61
5000 kPa, x2 = 0.4326	–	722.33
5000 kPa, x2 = 0.8711	–	759.48
5010 kPa, x2 = 0.1391	720.8	–
5010 kPa, x2 = 0.1907	722.46	–
5020 kPa, x2 = 0.1907	–	713.66
5020 kPa, x2 = 0.4326	731.76	–
5020 kPa, x2 = 0.6863	748.51	738.91
5020 kPa, x2 = 0.8711	768.83	–
6000 kPa, x2 = 0.1391	721.67	713.11
6000 kPa, x2 = 0.4326	732.64	–
6000 kPa, x2 = 0.6863	749.38	–
6010 kPa, x2 = 0.1907	723.31	714.57
6010 kPa, x2 = 0.3001	–	718.54
6010 kPa, x2 = 0.4326	–	723.28
6010 kPa, x2 = 0.6863	–	739.85
6010 kPa, x2 = 0.8711	769.69	760.42
6020 kPa, x2 = 0.3001	727.63	–
7000 kPa, x2 = 0.1907	724.18	–
7000 kPa, x2 = 0.4326	–	724.2
7010 kPa, x2 = 0.1391	722.52	–
7010 kPa, x2 = 0.1907	–	715.47
7010 kPa, x2 = 0.3001	–	719.46
7010 kPa, x2 = 0.6863	750.25	–
7010 kPa, x2 = 0.8711	–	761.33
7020 kPa, x2 = 0.1391	–	714.02
7020 kPa, x2 = 0.3001	728.48	–
7020 kPa, x2 = 0.4326	733.49	–
7020 kPa, x2 = 0.6863	–	740.78
7020 kPa, x2 = 0.8711	770.55	–
8000 kPa, x2 = 0.1907	–	716.39
8000 kPa, x2 = 0.3001	729.32	–
8000 kPa, x2 = 0.6863	751.12	–
8010 kPa, x2 = 0.1391	723.35	714.92
8010 kPa, x2 = 0.1907	725.03	–
8010 kPa, x2 = 0.4326	734.37	725.12
8010 kPa, x2 = 0.8711	771.39	762.24
8020 kPa, x2 = 0.3001	–	720.36
8020 kPa, x2 = 0.6863	–	741.71
9000 kPa, x2 = 0.1391	–	715.8
9000 kPa, x2 = 0.1907	–	717.29
9000 kPa, x2 = 0.4326	–	726.05
9000 kPa, x2 = 0.6863	–	742.63
9000 kPa, x2 = 0.8711	–	763.15
9010 kPa, x2 = 0.1391	724.19	–
9010 kPa, x2 = 0.1907	725.85	–
9010 kPa, x2 = 0.3001	730.17	721.28
9010 kPa, x2 = 0.6863	751.97	–
9020 kPa, x2 = 0.4326	735.2	–
9020 kPa, x2 = 0.8711	772.23	–
10000 kPa, x2 = 0.1391	–	716.7
10000 kPa, x2 = 0.1907	–	718.16
10000 kPa, x2 = 0.3001	–	722.18
10000 kPa, x2 = 0.6863	752.81	–
10010 kPa, x2 = 0.1391	724.99	–
10010 kPa, x2 = 0.1907	726.66	–
10010 kPa, x2 = 0.3001	731	–
10010 kPa, x2 = 0.4326	736.06	–
10020 kPa, x2 = 0.8711	773.07	–
11000 kPa, x2 = 0.1907	727.49	–
11000 kPa, x2 = 0.3001	731.82	–
11000 kPa, x2 = 0.6863	753.64	–
11010 kPa, x2 = 0.1391	725.82	–
11010 kPa, x2 = 0.8711	773.9	–
11020 kPa, x2 = 0.4326	736.89	–
12000 kPa, x2 = 0.8711	774.72	–
12010 kPa, x2 = 0.1907	728.3	–
12010 kPa, x2 = 0.3001	732.64	–
12010 kPa, x2 = 0.4326	737.71	–
12010 kPa, x2 = 0.6863	754.47	–
12020 kPa, x2 = 0.1391	726.61	–
13000 kPa, x2 = 0.1391	727.41	–
13000 kPa, x2 = 0.1907	729.09	–
13000 kPa, x2 = 0.8711	775.51	–
13010 kPa, x2 = 0.3001	733.44	–
13010 kPa, x2 = 0.4326	738.53	–
13010 kPa, x2 = 0.6863	755.3	–
14000 kPa, x2 = 0.3001	734.23	–
14010 kPa, x2 = 0.1391	728.19	–
14010 kPa, x2 = 0.4326	739.32	–
14010 kPa, x2 = 0.6863	756.1	–
14020 kPa, x2 = 0.1907	729.89	–
14020 kPa, x2 = 0.8711	776.33	–
15000 kPa, x2 = 0.6863	756.89	–
15010 kPa, x2 = 0.1391	728.97	–
15010 kPa, x2 = 0.1907	730.66	–
15010 kPa, x2 = 0.3001	735.01	–
15010 kPa, x2 = 0.4326	740.1	–
15020 kPa, x2 = 0.8711	777.12	–
16000 kPa, x2 = 0.4326	740.87	–
16010 kPa, x2 = 0.1391	729.71	–
16010 kPa, x2 = 0.6863	757.68	–
16010 kPa, x2 = 0.8711	777.89	–
16020 kPa, x2 = 0.1907	731.41	–
16020 kPa, x2 = 0.3001	735.77	–
17000 kPa, x2 = 0.6863	758.44	–
17010 kPa, x2 = 0.1391	730.47	–
17020 kPa, x2 = 0.1907	732.18	–
17020 kPa, x2 = 0.3001	736.53	–
17020 kPa, x2 = 0.4326	741.63	–
17020 kPa, x2 = 0.8711	778.66	–
18000 kPa, x2 = 0.1391	731.21	–
18010 kPa, x2 = 0.3001	737.27	–
18010 kPa, x2 = 0.4326	742.38	–
18010 kPa, x2 = 0.6863	759.2	–
18010 kPa, x2 = 0.8711	779.44	–
18020 kPa, x2 = 0.1907	732.92	–
19000 kPa, x2 = 0.1391	731.93	–
19000 kPa, x2 = 0.1907	733.63	–
19000 kPa, x2 = 0.3001	738.01	–
19000 kPa, x2 = 0.6863	759.95	–
19020 kPa, x2 = 0.4326	743.13	–
19020 kPa, x2 = 0.8711	780.17	–
20000 kPa, x2 = 0.3001	738.71	–
20000 kPa, x2 = 0.4326	743.85	–
20010 kPa, x2 = 0.6863	760.69	–
20020 kPa, x2 = 0.1391	732.61	–
20020 kPa, x2 = 0.1907	734.34	–
20020 kPa, x2 = 0.8711	780.91	–

— the NIST ThermoML archive (doi:10.1021/acs.jced.8b00554)
